Assay results as given in patent publication US20160215305A1, “Process of Fermenting A Lignocellulosic Biomass” (priority 2015, published 2016).

Assays:
[1] = tested on: S. cerevisiae; test: Fermentation of glucose solution with model inhibitors (cinnamaldehyde, vanillin), with or without cysteine or glycine detoxification; format: cell-based, Saccharomyces cerevisiae; conditions: for detoxification of cinnamaldehyde in glucose solution (fermentation): 2.5 mM cinnamaldehyde
Experimental: (§1) Batch fermentation was carried out in 125 mL serum bottles containing 50 mL broths (untreated or detoxified hydrolysates, untreated or detoxified cinnamaldehyde sugar solution) without any additional nutrient supplement. All the fermentation broths were adjusted to pH 6 with NaOH or H2SO4 and sterilized by passing 0.2 μm sterile filters. After inoculation, the serum bottle was sealed with rubber stopper and aluminum seal, and equipped with cannulas for CO2 release. All fermentation experiments were incubated at 30° C., spun at 150 rpm in a shaker (E24, New Brunswick Scientific). Aliquots of samples were withdrawn at 0, 1, 3, 6, 9, 12, 24, 36 and 48 hours for the time course analysis of both starting material and products. Fermentation was carried out in duplicate. The volumetric ethanol productivity and initial consumption rate of glucose (RG) and mannose (RM) was calculated based on the sugar consumed in the first 6 h of fermentation as described previously (Cao, D. X., Tu, M. B., Xie, R., Li, J., Wu, Y. N., Adhikari, S. 2014. Inhibitory Activity of Carbonyl Compounds on Alcoholic Fermentation by Saccharomyces cerevisiae. Journal of Agricultural and Food Chemistry, 62(4), 918-926).
Preparation of the lignocellulosic biomass and the treatment thereof was performed as described in Example 1. After detoxification, the detoxified hydrolysates were cooled to room temperature and then readjusted to pH 6.0 if needed. Similarly, for the model compound (cinnamaldehyde) detoxification, glucose (˜20 g/L) was mixed with 2.5 mM cinnamaldehyde, and then treated with 5 mM cysteine or glycine at 60° C. for 2 hours prior to fermentation.
To ascertain the potential reaction mechanism in amino acids detoxification of biomass hydrolysates, cinnamaldehyde was detoxified in glucose solution with cysteine and glycine.

[2] = tested on: S. cerevisiae; test: Batch fermentation of amino acid detoxified loblolly pine hydrolysates by Baker yeast; format: cell-based, Saccharomyces cerevisiae
Source text: Loblolly pine (Pinus taeda) wood chips (1.0×1.0 cm, L×W) were collected by Forest Products Laboratory at Auburn University, located in Auburn, Ala. Dilute acid pretreatment was used to produce biomass hydrolysates in a 4.0 L Parr batch reactor (Parr Instrument Co., Moline, Ill.) as previously described (Lai, C. H., Tu, M. B., Li, M., Yu, S. Y. 2014. Remarkable solvent and extractable lignin effects on enzymatic digestibility of organosolv pretreated hardwood. Bioresource Technology, 156, 92-98). Briefly, wood chips (400 grams, dry weight) were soaked in 1% (w/w) sulfuric acid overnight (7:1 liquor/solid ratio) prior to the pretreatment, and then loaded into a reactor and treated at 170° C. for 60 minutes.
To achieve higher ethanol titer in fermentation, loblolly pine hydrolysates were concentrated to approximately one-third of its original volume using a rotary evaporator (IKA RV10 basic) at 40° C. and 60 rotations per minute (rpm). The hydrolysates were first adjusted to pH 4.0 before evaporation. After the concentration, the sugar contents of the hydrolysates were analyzed by HPLC.
[…] The detoxification experiments were performed in a 250 mL flask and placed in a temperature-controlled water batch.
Baker yeast (Fleischmann's), S. cerevisiae, was used for all the fermentation experiments in this study. The yeast was maintained on YDP medium containing (g/L): 20 glucose, 20 peptone, 10 yeast extract and 20 agar. Isolated colony was grown in YDP liquid medium overnight and harvested as fermentation inoculum. The yeast concentration was measured using an UV-vis spectrophotometer. Inoculum of 2.0 g/L was used for all fermentation experiments.
as §1
Ethanol, acetic acid, levulinic acid, formic acid, furfural and HMF were analyzed using an Aminex HPX-87H column (300×7.8 mm) with a refractive index detector. The elution conditions were column temperature of 45° C. and flow rate of 0.6 ml/min with 5.0 mM H2SO4 as the mobile phase in a 60 min isocratic run.

[3] = tested on: S. cerevisiae; conditions: cited from earlier work
[4] = glucose ~20 g/L, 5 mM amino acid, 60° C., 2 hours
[5] = detoxification at 80° C., pH 6.0, 2 hours
[6] = hydrolysates detoxified with amino acid 0.2% w/v, pH 6.0, 60° C., 2 hours
[7] = hydrolysates detoxified with amino acid 0.2% w/v, pH 6.0, 60° C., 2 hours, listed as cysteine
[8] = pH 6.0, 60° C., 2 hours detoxification
[9] = detoxification at 50° C., pH 6.0, 2 hours
[10] = detoxification at pH 8.0, 60° C., 2 hours
[11] = hydrolysates detoxified with amino acid 0.2% w/v, pH 6.0, 60° C., 2 hours, listed as glycine

**Q.** Which results are given for N[C@@H](CS)C(=O)O [Cysteine, cysteine]?
**A.** detoxification of cinnamaldehyde in glucose solution (fermentation) [1, 4]: detoxified cinnamaldehyde very effectively; increase of volumetric ethanol productivity when pH was increased from 2 and 4 to 6 ([2]; 60° C., 2 hours): 92%; final ethanol yield ([2]; detoxification at 20, 40, 60 and 80° C. (approximately the same), pH 6.0): ~0.42 g/g; final ethanol concentration ([2]; detoxification at 20, 40, 60 and 80° C. (the same), pH 6.0): about 23.34 g/L; volumetric ethanol productivity ([2]; detoxification at 20° C., pH 6.0, 2 hours): 0.83 g/L/h; volumetric ethanol productivity ([2]; detoxification at 40° C., pH 6.0, 2 hours): 1.19 g/L/h; volumetric ethanol productivity [2, 5]: 1.90 g/L/h; final ethanol concentration ([2]; detoxification at pH 2.0, 4.0 and 6.0 (the same), 60° C.): 23.56 g/L; volumetric ethanol productivity ([2]; detoxification at pH 2 and 4, 60° C., 2 hours): 0.92 g/L/h; CEtOH, ethanol final concentration at 48 h [2, 6]: 23.14 ± 0.10 g/L; QEtOH, volumetric ethanol productivity in the first 6 h [2, 6]: 1.77 ± 0.03 g/L/h; RG, glucose consumption rate in the first 6 h [2, 6]: 2.10 ± 0.04 g/L/h; RM, mannose consumption rate in the first 6 h [2, 6]: 2.16 ± 0.12 g/L/h; YEtOH, ethanol yield from total glucose and mannose at 48 h [2, 6]: 0.42 ± 0.00 g/g; CEtOH, ethanol final concentration at 48 h [2, 7]: 23.14 g/L; QEtOH, volumetric ethanol productivity in the first 6 h [2, 7]: 1.77 g/L/h; RG, glucose consumption rate in the first 6 h [2, 7]: 2.10 g/L/h; RM, mannose consumption rate in the first 6 h [2, 7]: 2.16 g/L/h; YEtOH, ethanol yield from total glucose and mannose at 48 h [2, 7]: 0.42 g/g; ethanol productivity higher than positive sugar control (1.39 g/L/h) [2, 8]: 27%; improvement of mannose consumption rate compared to the positive sugar control [2, 8]: 43%; increase of volumetric ethanol productivity when temperature was changed from 20 to 40, 60, and 80° C. ([2]; pH 6.0, 2 hours): 43-130%

**Q.** Which “detoxification of cinnamaldehyde in glucose solution (fermentation)” value ([1]; glucose solution, detoxified at 80° C.) does the source give for NCC(=O)O [Glycine, glycine] here?
**A.** The value was “became fermentable”.

**Q.** What about the “detoxification of cinnamaldehyde in glucose solution (fermentation)” value [1, 4] of the same molecule?
**A.** The value was “did not detoxify the cinnamaldehyde”.

**Q.** What about the ethanol productivity [2, 9] of the same molecule?
**A.** The ethanol productivity was 0.24 g/L/h.

**Q.** What about the final ethanol concentration [2, 9] of the same molecule?
**A.** Its final ethanol concentration is 1.87 g/L.

**Q.** And the final ethanol concentration ([2]; detoxification at 70 and 80° C., pH 6.0, 2 hours)?
**A.** Its final ethanol concentration is 23.00 g/L.

**Q.** What about the ethanol productivity ([2]; detoxification at 70° C., pH 6.0, 2 hours) of the same molecule?
**A.** The ethanol productivity was 1.08 g/L/h.

**Q.** And the volumetric ethanol productivity [2, 5]?
**A.** The volumetric ethanol productivity was 1.33 g/L/h.

**Q.** And the “fermentability of detoxified biomass hydrolysates” value ([2]; detoxification at pH 2.0 and 4.0, 60° C., 2 hours)?
**A.** The value was “not fermentable”.

**Q.** And the “fermentability of detoxified hydrolysates” value ([2]; detoxification at pH 2.0 and 4.0, 80° C.)?
**A.** Its value is “still not fermentable”.

**Q.** What about the ethanol productivity [2, 10] of the same molecule?
**A.** Its ethanol productivity is 0.87 g/L/h.

**Q.** What about the final ethanol concentration [2, 10] of the same molecule?
**A.** The final ethanol concentration was 23.77 g/L.

**Q.** What about the “CEtOH, ethanol final concentration at 48 h” value (“CEtOH … at 48 h” below) [2, 6] of the same molecule?
**A.** The value was 8.58 ± 0.27 g/L.

**Q.** And the “QEtOH, volumetric ethanol productivity in the first 6 h” value (“QEtOH, volumetric ethanol productivity” for short) [2, 6]?
**A.** The value was 0.42 ± 0.01 g/L/h.

**Q.** And the “RG, glucose consumption rate in the first 6 h” value [2, 6]?
**A.** The value was 0.39 ± 0.01 g/L/h.

**Q.** And the “RM, mannose consumption rate in the first 6 h” value [2, 6]?
**A.** The value was 0.50 ± 0.05 g/L/h.

**Q.** What about the “YEtOH, ethanol yield from total glucose and mannose at 48 h” value (“YEtOH, ethanol yield” for short) [2, 6] of the same molecule?
**A.** The value was 0.16 ± 0.01 g/g.

**Q.** And the “CEtOH … at 48 h” value [2, 11]?
**A.** Its value is 8.58 g/L.

**Q.** What about the “QEtOH, volumetric ethanol productivity” value [2, 11] of the same molecule?
**A.** Its value is 0.42 g/L/h.

**Q.** And the “YEtOH, ethanol yield” value [2, 11]?
**A.** The value was 0.16 g/g.

**Q.** With O=Cc1ccc(CO)o1 [HMF, hydroxymethylfurfural] as the molecule, how does the “effect on ethanol production by S. cerevisiae” value ([3]; addition of 25 mM (3.16 g/L)) read?
**A.** The value was “did not affect the ethanol production”.

**Q.** Which “CEtOH … at 48 h” value [2, 6] does the source give for CC(C)[C@H](N)C(=O)O [Valine, valine] here?
**A.** The value was 2.69 ± 0.18 g/L.

**Q.** And the “CHMF, percentage of HMF consumed at 48 h” value [2, 6]?
**A.** The value was 12.66 ± 1.50%.

**Q.** What about the “QEtOH, volumetric ethanol productivity” value [2, 6] of the same molecule?
**A.** The value was 0.32 ± 0.00 g/L/h.

**Q.** And the “RG, glucose consumption rate in the first 6 h” value [2, 6]?
**A.** Its value is 0.25 ± 0.00 g/L/h.

**Q.** And the “RM, mannose consumption rate in the first 6 h” value [2, 6]?
**A.** The value was 0.49 ± 0.03 g/L/h.

**Q.** And the “YEtOH, ethanol yield” value [2, 6]?
**A.** The value was 0.05 ± 0.00 g/g.

**Q.** For CC(=O)O [acetic acid], which “increase of final ethanol yield in S. cerevisiae fermentation” value ([3]; 9 g/L at pH 5) is on record?
**A.** Its value is 16%.

**Q.** For O=CC=Cc1ccccc1 [cinnamaldehyde, reference compound], which “inhibition of glucose fermentation” value ([1]; 2.5 mM inhibitor in glucose solution, preliminary results) is on record?
**A.** The value was “inhibited glucose fermentation significantly”.

**Q.** With COc1cc(C=O)ccc1O [vanillin, reference compound] as the molecule, how does the “inhibition of glucose fermentation (final ethanol concentration and yield)” value ([1]; 10 mM inhibitor in glucose solution, preliminary results) read?
**A.** The value was “did not inhibit the final ethanol concentration and yield”.
